Our source for the selectivity ratio and EC50 values is ChEMBL document CHEMBL4392885, “Investigation of Premyrsinane and Myrsinane Esters in Euphorbia cupanii and Euphobia pithyusa with MS2LDA and Combinatorial Molecular Network Annotation Propagation” (J Nat Prod, 2019).

Series [1] in a line: Selectivity index, ratio of CC50 for African green monkey Vero A cells to EC50 for Chikungunya virus Indian ocean strain 899 infected in African green monkey Vero A cells. It counts as toxicity. The following applies: read-out: Ratio CC50/EC50.
Another series deals with Chikungunya virus. Description: Antiviral activity against Chikungunya virus Indian ocean strain 899 infected in African green monkey Vero A cells assessed as reduction in viral-induced cytopathic effect after 6 to 7 days by MTS/PMS assay. It counts as functional, organism-based. The following applies: Indian ocean strain 899, Vero. For orientation: Damage to the host cells serves as the signal in cytopathic effect assays.

Some results are limits rather than exact numbers.

For `CCCCC/C=C/C=C\C(=O)O[C@@H]1[C@@H](C)[C@@]2(O)[C@@H](C=C(CO)C[C@]3(O)C(=O)C(C)=C[C@@H]23)[C@@H]2C(C)(C)[C@]12OC(=O)C(C)C`, in series [1], the selectivity ratio is > 12. Besides, in the series on Chikungunya virus, the EC50 is < 800 nM.
Taken in the same sequence, the figures for `CCCCC/C=C\C=C\C(=O)O[C@@H]1[C@@H](C)[C@@]2(O)[C@@H](C=C(CO)C[C@]3(O)C(=O)C(C)=C[C@@H]23)[C@@H]2C(C)(C)[C@]12OC(=O)C(C)CC` (stereo partly drawn) were > 12 and < 800 nM.
On to `CCCCC/C=C/C=C\C(=O)O[C@@H]1[C@@H](C)[C@@]2(O)[C@@H](C(=O)C(CO)=C[C@]3(O)C(=O)C(C)=C[C@@H]23)[C@@H]2C(C)(C)[C@]12OC(=O)C(C)C`, for which, in series [1], the selectivity ratio amounted to 6.3. Further, the EC50 in the series with Chikungunya virus was 4500 nM.
For the compound `CCCCC/C=C\C=C\C(=O)O[C@@H]1[C@@H](C)[C@@]2(O)[C@@H](C=C(CO)C[C@]3(O)C(=O)C(C)=C[C@@H]23)[C@@H]2C(C)(C)[C@]12OC(=O)C(C)C`, the selectivity ratio in series [1] is > 12. Further, the EC50 in the series on Chikungunya virus was < 800 nM.

The EC50 is the concentration at which the effect is half-maximal.
